Several values for one entry are separate records, joined by “and”; a condition that tells them apart may be missing. Identical values can stand only once.
Legend:
[1] = molecular target: α7–GlyR mutant chimeric channels (Homo sapiens, UniProt P36544, Q79G); experiment: Membrane potential assay screen, mutant α7–GlyR chimeric channels; assay type: cell-based; conditions: EC50 at α7-GlyR Q79G, sheet 1d
[2] = molecular target: α7–GlyR mutant chimeric channels (Homo sapiens, UniProt P36544, L131F); experiment: as above; assay type: cell-based; conditions: EC50 at α7GlyR L131F, sheet 1d
[3] = molecular target: α7–GlyR mutant chimeric channels (Homo sapiens, UniProt P36544, W77F); experiment: as above; assay type: cell-based; conditions: EC50 at a7 GlyR W77F, sheet 1d
[4] = molecular target: α7–GlyR mutant chimeric channels (Homo sapiens, UniProt P36544, P216I); experiment: as above; assay type: cell-based; conditions: EC50 at α7 GlyR P216I, sheet 1d
[5] = molecular target: α7–GlyR mutant chimeric channels (Homo sapiens, UniProt P36544, L141G); experiment: as above; assay type: cell-based; conditions: EC50 at α7 GlyR L141G, sheet 1d
[6] = molecular target: α7–GlyR mutant chimeric channels (Homo sapiens, UniProt P36544, L131N); experiment: as above; assay type: cell-based; conditions: EC50 at α7 GlyR L131N, sheet 1d
[7] = molecular target: α7–GlyR mutant chimeric channels (Homo sapiens, UniProt P36544, L131Q); experiment: as above; assay type: cell-based; conditions: EC50 at α7 GlyR L131Q, sheet 1d
[8] = molecular target: α7–GlyR mutant chimeric channels (Homo sapiens, UniProt P36544, L141F); experiment: as above; assay type: cell-based; conditions: EC50 at α7 GlyR L141F, sheet 1d
[9] = molecular target: α7–GlyR mutant chimeric channels (Homo sapiens, UniProt P36544, L141A); experiment: as above; assay type: cell-based; conditions: EC50 at α7 GlyR L141A, sheet 1d
[10] = molecular target: α7–GlyR mutant chimeric channels (Homo sapiens, UniProt P36544, L141P); experiment: as above; assay type: cell-based; conditions: EC50 at α7 GlyR L141P, sheet 1d
[11] = molecular target: α7–GlyR mutant chimeric channels (Homo sapiens, UniProt P36544, L131A); experiment: as above; assay type: cell-based; conditions: EC50 at α7GlyR L131A, sheet 1d
[12] = molecular target: α7–GlyR mutant chimeric channels (Homo sapiens, UniProt P36544, P216A); experiment: as above; assay type: cell-based; conditions: EC50 at α7 GlyR P216A, sheet 1d
[13] = molecular target: α7–GlyR mutant chimeric channels (Homo sapiens, UniProt P36544, L131G); experiment: as above; assay type: cell-based; conditions: EC50 at α7GlyR L131G, sheet 1d
[14] = molecular target: α7–GlyR mutant chimeric channels (Homo sapiens, UniProt P36544, L131K); experiment: as above; assay type: cell-based; conditions: EC50 at α7 GlyR L131K, sheet 1d
[15] = molecular target: α7–GlyR mutant chimeric channels (Homo sapiens, UniProt P36544, L131M); experiment: as above; assay type: cell-based; conditions: EC50 at α7 GlyR L131M, sheet 1d
[16] = test system: rats with coca-5HT3 in the LHb; experiment: Cocaine IVSA (intravenous self-administration); assay type: in vivo, rat; conditions: Coca-5HT3 rats

Sequence of α7–GlyR mutant chimeric channels (Homo sapiens, UniProt P36544, L131N) (P36544 23-230 L131N): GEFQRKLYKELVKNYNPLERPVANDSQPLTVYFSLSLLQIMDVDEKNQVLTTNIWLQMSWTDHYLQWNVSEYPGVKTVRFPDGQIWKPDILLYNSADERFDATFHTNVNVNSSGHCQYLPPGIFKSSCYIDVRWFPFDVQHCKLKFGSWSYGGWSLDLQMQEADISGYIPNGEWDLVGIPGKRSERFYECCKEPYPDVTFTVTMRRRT
Sequence of α7–GlyR mutant chimeric channels (Homo sapiens, UniProt P36544, L131N) (P23415 247-457 partner): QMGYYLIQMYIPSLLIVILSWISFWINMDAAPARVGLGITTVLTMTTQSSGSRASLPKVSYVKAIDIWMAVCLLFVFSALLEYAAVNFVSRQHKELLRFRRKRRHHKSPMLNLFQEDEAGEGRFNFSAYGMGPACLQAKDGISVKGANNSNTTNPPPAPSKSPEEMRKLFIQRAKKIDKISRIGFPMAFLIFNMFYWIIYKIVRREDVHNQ
Sequence of α7–GlyR mutant chimeric channels (Homo sapiens, UniProt P36544, L141G) (P36544 23-230 L141G): as the sequence (P36544 23-230 L131N) above, with N109L, L119G counted along it
Sequence of α7–GlyR mutant chimeric channels (Homo sapiens, UniProt P36544, L141G) (P23415 247-457 partner): as the sequence (P23415 247-457 partner) above
Sequence of α7–GlyR mutant chimeric channels (Homo sapiens, UniProt P36544, L141A) (P36544 23-230 L141A): as the sequence (P36544 23-230 L131N) above, with N109L, L119A counted along it
Sequence of α7–GlyR mutant chimeric channels (Homo sapiens, UniProt P36544, L141A) (P23415 247-457 partner): as the sequence (P23415 247-457 partner) above
Sequence of α7–GlyR mutant chimeric channels (Homo sapiens, UniProt P36544, L131M) (P36544 23-229 L131M): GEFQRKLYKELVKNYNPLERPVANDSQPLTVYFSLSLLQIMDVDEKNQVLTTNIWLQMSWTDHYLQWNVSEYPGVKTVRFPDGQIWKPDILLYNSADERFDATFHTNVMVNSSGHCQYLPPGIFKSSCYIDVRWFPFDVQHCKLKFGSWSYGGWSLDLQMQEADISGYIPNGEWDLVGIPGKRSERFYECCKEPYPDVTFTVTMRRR
Sequence of α7–GlyR mutant chimeric channels (Homo sapiens, UniProt P36544, L131M) (P23415 247-457 partner): as the sequence (P23415 247-457 partner) above
Sequence of α7–GlyR mutant chimeric channels (Homo sapiens, UniProt P36544, L131G) (P36544 23-229 L131G): as the sequence (P36544 23-229 L131M) above, with M109G counted along it
Sequence of α7–GlyR mutant chimeric channels (Homo sapiens, UniProt P36544, L131G) (P23415 248-457 partner): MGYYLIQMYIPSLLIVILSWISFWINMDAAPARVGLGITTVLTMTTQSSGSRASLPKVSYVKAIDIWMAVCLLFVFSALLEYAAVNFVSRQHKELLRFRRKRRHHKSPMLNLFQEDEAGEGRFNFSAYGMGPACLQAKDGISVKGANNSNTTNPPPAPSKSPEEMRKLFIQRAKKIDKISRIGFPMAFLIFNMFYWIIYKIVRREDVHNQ
Sequence of α7–GlyR mutant chimeric channels (Homo sapiens, UniProt P36544, P216A) (P36544 23-230 P216A): as the sequence (P36544 23-230 L131N) above, with N109L, P194A counted along it
Sequence of α7–GlyR mutant chimeric channels (Homo sapiens, UniProt P36544, P216A) (P23415 247-457 partner): as the sequence (P23415 247-457 partner) above
Sequence of α7–GlyR mutant chimeric channels (Homo sapiens, UniProt P36544, W77F) (P36544 23-230 W77F): as the sequence (P36544 23-230 L131N) above, with W55F, N109L counted along it
Sequence of α7–GlyR mutant chimeric channels (Homo sapiens, UniProt P36544, W77F) (P23415 248-457 partner): as the sequence (P23415 248-457 partner) above
Sequence of α7–GlyR mutant chimeric channels (Homo sapiens, UniProt P36544, Q79G) (P36544 23-230 Q79G): as the sequence (P36544 23-230 L131N) above, with Q57G, N109L counted along it
Sequence of α7–GlyR mutant chimeric channels (Homo sapiens, UniProt P36544, Q79G) (P23415 248-457 partner): as the sequence (P23415 248-457 partner) above
Sequence of α7–GlyR mutant chimeric channels (Homo sapiens, UniProt P36544, L131K) (P36544 23-229 L131K): as the sequence (P36544 23-229 L131M) above, with M109K counted along it
Sequence of α7–GlyR mutant chimeric channels (Homo sapiens, UniProt P36544, L131K) (P23415 248-457 partner): as the sequence (P23415 248-457 partner) above
Sequence of α7–GlyR mutant chimeric channels (Homo sapiens, UniProt P36544, L141F) (P36544 23-230 L141F): as the sequence (P36544 23-230 L131N) above, with N109L, L119F counted along it
Sequence of α7–GlyR mutant chimeric channels (Homo sapiens, UniProt P36544, L141F) (P23415 247-457 partner): as the sequence (P23415 247-457 partner) above
Sequence of α7–GlyR mutant chimeric channels (Homo sapiens, UniProt P36544, L141P) (P36544 23-230 L141P): as the sequence (P36544 23-230 L131N) above, with N109L, L119P counted along it
Sequence of α7–GlyR mutant chimeric channels (Homo sapiens, UniProt P36544, L141P) (P23415 247-457 partner): as the sequence (P23415 247-457 partner) above
Sequence of α7–GlyR mutant chimeric channels (Homo sapiens, UniProt P36544, L131Q) (P36544 23-230 L131Q): as the sequence (P36544 23-230 L131N) above, with N109Q counted along it
Sequence of α7–GlyR mutant chimeric channels (Homo sapiens, UniProt P36544, L131Q) (P23415 247-457 partner): as the sequence (P23415 247-457 partner) above
Sequence of α7–GlyR mutant chimeric channels (Homo sapiens, UniProt P36544, L131F) (P36544 23-228 L131F): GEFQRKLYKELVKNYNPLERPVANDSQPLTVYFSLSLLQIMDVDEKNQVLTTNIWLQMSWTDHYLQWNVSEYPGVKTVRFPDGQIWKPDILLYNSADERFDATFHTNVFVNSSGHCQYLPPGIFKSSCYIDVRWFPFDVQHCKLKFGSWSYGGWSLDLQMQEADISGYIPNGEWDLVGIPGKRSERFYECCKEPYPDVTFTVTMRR
Sequence of α7–GlyR mutant chimeric channels (Homo sapiens, UniProt P36544, L131F) (P23415 248-457 partner): as the sequence (P23415 248-457 partner) above
Sequence of α7–GlyR mutant chimeric channels (Homo sapiens, UniProt P36544, L131A) (P36544 23-228 L131A): as the sequence (P36544 23-228 L131F) above, with F109A counted along it
Sequence of α7–GlyR mutant chimeric channels (Homo sapiens, UniProt P36544, L131A) (P23415 248-457 partner): as the sequence (P23415 248-457 partner) above
Sequence of α7–GlyR mutant chimeric channels (Homo sapiens, UniProt P36544, P216I) (P36544 23-230 P216I): as the sequence (P36544 23-230 L131N) above, with N109L, P194I counted along it
Sequence of α7–GlyR mutant chimeric channels (Homo sapiens, UniProt P36544, P216I) (P23415 248-457 partner): as the sequence (P23415 248-457 partner) above

SMILES: COC(=O)[C@H]1[C@@H](OC(=O)c2ccccc2)C[C@@H]2CC[C@H]1N2C [cocaine]
- EC50 ([1]; Avg): > 30 µM
- EC50 ([1]; single determinations): > 30 µM
- EC50 ([2]; Avg): > 30 µM
- EC50 ([2]; single determinations): > 30 µM
- EC50 ([3]; Avg): 3.4 µM
- EC50 ([3]; single determinations): 3.4 µM
- EC50 ([4]; Avg): > 30 µM
- EC50 ([4]; single determinations): > 30 µM
- EC50 ([5]; Avg): 8.3 µM
- EC50 ([5]; single determinations): 5.6 µM and 11 µM
- EC50 ([6]; Avg): 21 µM
- EC50 ([6]; single determinations): 12 µM and > 30 µM
- EC50 ([7]; Avg): > 30 µM
- EC50 ([7]; single determinations): > 30 µM
- EC50 ([8]; Avg): > 30 µM
- EC50 ([8]; single determinations): > 30 µM
- EC50 ([9]; Avg): 5 µM
- EC50 ([9]; single determinations): 6.7 µM and 3.3 µM
- EC50 ([10]; Avg): > 30 µM
- EC50 ([10]; single determinations): > 30 µM
- EC50 ([11]; Avg): > 30 µM
- EC50 ([11]; single determinations): > 30 µM
- EC50 ([12]; Avg): > 30 µM
- EC50 ([12]; single determinations): > 30 µM
- EC50 ([13]; Avg): > 30 µM
- EC50 ([13]; single determinations): > 30 µM
- EC50 ([14]; Avg): > 30 µM
- EC50 ([14]; single determinations): > 30 µM
- EC50 ([15]; Avg): > 30 µM
- EC50 ([15]; single determinations): > 30 µM
- Sheet 3g, Mean (per-rat counts at each dose) ([16]; Dose 0.0625): 32.0909
- Sheet 3h, Mean (sheet 3g count x dose, intake) ([16]; Dose 0.0625): 2.006
- Sheet 3g, Mean (per-rat counts at each dose) ([16]; Dose 0.125): 43.1818
- Sheet 3h, Mean (sheet 3g count x dose, intake) ([16]; Dose 0.125): 5.398
- Sheet 3g, Mean (per-rat counts at each dose) ([16]; Dose 0.25): 30.2727
- Sheet 3h, Mean (sheet 3g count x dose, intake) ([16]; Dose 0.25): 7.568
- Sheet 3g, Mean (per-rat counts at each dose) ([16]; Dose 0.5): 19.0909
- Sheet 3h, Mean (sheet 3g count x dose, intake) ([16]; Dose 0.5): 9.545
- Sheet 3g, Mean (per-rat counts at each dose) ([16]; Dose 1): 10.8182
- Sheet 3h, Mean (sheet 3g count x dose, intake) ([16]; Dose 1): 10.8182

Source: article PMC12527922, “Cocaine chemogenetics blunts drug-seeking by synthetic physiology” (Nature, 2025)
